Where a name gives a salt, the structure may show the parent alone.
Columns and labels:
[1] = system: CFPAC-1 pancreatic cancer cells; assay: MTT proliferation assay, CFPAC-1; assay type: cell-based; details: Homo sapiens; CFPAC-1, MTT, 72 h
Description: (§1) The pancreatic cancer cell lines, including MIAPaCa-2, PANC 1, CAPAN-2 and CFPAC-1 were a generous gift from Prof. Andrew Biankin (Garvan Institute, NSW, Australia). The MIAPaCa-2, PANC 1 and CFPAC-1 cell lines were grown in DMEM medium (Invitrogen) and CAPAN-2 cells were grown in McCoy's medium (Invitrogen). All media was supplemented with 10% (v/v) fetal calf serum (Invitrogen), 1% (v/v) non-essential amino acids (Invitrogen), 1% (v/v) sodium pyruvate (Invitrogen), 2 mM L-glutamine (Invitrogen), 100 μg/mL of streptomycin (Invitrogen), 100 U/ml penicillin (Invitrogen), and 0.28 μg/mL of fungizone.
(§2) To further examine the spectrum of anti-proliferative activity, Dp4cycH4mT was tested against pancreatic cancer in vitro, performing MTT proliferation assays with PANC 1, MIAPaCa-2, CFPAC-1 and CAPAN-2 pancreatic cancer cells. As a comparison, currently used treatments for pancreatic cancer including gemcitabine and 5-fluorouracil were also tested. The iron chelator, DFO, was included as a positive control.
(§3) Table 2A. Anti-proliferative activity of Dp4cycH4mT against pancreatic cancer cell lines. Growth and antiproliferative activity IC50 (μM) values of Dp4cycH4mT in a variety of pancreatic cell lines and in comparison to DFO and the clinically used drugs gemcitabine and 5-fluorouracil as determined by the MTT assay. Cells were seeded and allowed to attach to wells for 24 h and then incubated for 72 h at 37° C. with control medium or the chelators. Results are mean±SD (3 experiments).
as §3, with “2B.” for “2A.”, “IC90” for “Growth and antiproliferative activity IC50”

[2] = system: MIAPaCa-2 pancreatic cancer cells; assay: MTT proliferation assay, MIAPaCa-2; assay type: cell-based; details: Homo sapiens, MIA PaCa-2; MIAPaCa-2, MTT, 72 h
Description: as §1, §2, §3
as §3, with “2B.” for “2A.”, “IC90” for “Growth and antiproliferative activity IC50”

[3] = system: CAPAN-2 pancreatic cancer cells; assay: MTT proliferation assay, CAPAN-2; assay type: cell-based; details: Homo sapiens; CAPAN-2, MTT, 72 h
Description: as §1, §2, §3
as §3, with “2B.” for “2A.”, “IC90” for “Growth and antiproliferative activity IC50”

[4] = system: PANC 1 pancreatic cancer cells; assay: MTT proliferation assay, PANC 1; assay type: cell-based; details: Homo sapiens; PANC 1, MTT, 72 h
Description: as §1, §2, §3
as §3, with “2B.” for “2A.”, “IC90” for “Growth and antiproliferative activity IC50”

[5] = system: SK-N-MC neuroepithelioma cell line; assay: MTT anti-proliferative assay in SK-N-MC cells; assay type: cell-based, human; details: 72 h at 37° C., mean±SD (3 experiments)
Description: The cells were maintained in minimum essential media (MEM; Invitrogen, CA, USA) which contained 10% fetal calf serum (FCS; JRH Biosciences, Kansas, USA), 1% non-essential amino acids (Gibco, Victoria, Australia), 1% penicillin/streptomycin/glutamine (Gibco, VIC, Australia) and fungizone ([…]; Squibb Pharmaceuticals, Montreal, Canada).
The ability of the compounds to inhibit cellular proliferation was assessed initially in SK-N-MC cells by the MTT assay.
Table 1. […] Cells were seed and allowed to attach to wells for 24 h and then incubated for 72 h at 37° C. with control medium or the chelators.

[6] = system: SK-N-MC neuroepithelioma cells; assay: Iron uptake assay (59Fe uptake from 59Fe-transferrin); assay type: cell-based, human; details: 25 μM chelator, 3 h at 37° C., 59Fe-Tf
Description: Cells were cultured in the same way as for the iron efflux experiments. […] At the end of the incubation the culture dishes were placed on ice, the media aspirated, and the cells washed 4 times with ice cold PBS. Protease (1 mL; 1 mg/mL; Sigma-Aldrich, NSW, Australia) solution was added to each plate and allowed to incubate on ice for 30 min. This facilitated the removal of membrane bound ^59Fe-Tf. Cells were then scraped from the plastic surface using a Teflon spatula and collected in Eppendorf tubes. These were centrifuged at 10000 rpm and 4° C. for 3 min. The supernatant was then transferred into counting tubes and the cell pellet resuspended in PBS before also being transferred into another set of counting tubes. Radioactivity was measured using a Wallac Wizard 3″ Gamma Counter (PerkinElmer, MA, USA). Results are expressed as average ^59Fe content of the cellular fraction as a percentage of the control value.

[7] = system: SK-N-MC neuroepithelioma cells; assay: Iron efflux assay (59Fe release from pre-labeled cells); assay type: cell-based, human; details: 25 μM chelator, 3 h at 37° C.
Description: The culture dishes were then placed on ice, the supernatant containing excess ^59Fe-Tf was aspirated and the cells washed 4 times with ice-cold PBS. […] After 3 h the culture dishes were again placed on ice, the media was collected in counting tubes and this provided a measurement of released ^59Fe. Ice-cold PBS (1 mL) was added to plates containing cells and cells were scraped from the plastic surface using a Teflon spatula and also collected in counting tubes. These tubes represent the intracellular ^59Fe content. Results are expressed as total ^59Fe released as a percentage of total ^59Fe present. Radioactivity was measured using a Wallac Wizard 3″ Gamma Counter (PerkinElmer, MA, USA).

[8] = mouse, in vivo
[9] = system: PANC 1 human pancreatic carcinoma; assay: PANC 1 xenograft in nude mice: tumour growth; assay type: in vivo, nude mice (BALBc nu/nu)
Description: FIG. 5). […] (5 mg/kg) or vehicle control.

[10] = system: DMS-53 human lung carcinoma; assay: DMS-53 xenograft in nude mice, i.v. administration: tumour growth; assay type: in vivo, nude mice (BALBc nu/nu)
[11] = DMS-53 xenograft oral study: body and organ weights, haematology, biochemistry, histology; assay type: in vivo, nude mice (BALBc nu/nu)
[12] = system: DMS-53 human lung carcinoma; assay: DMS-53 xenograft in nude mice, oral gavage: tumour growth; assay type: in vivo, nude mice (BALBc nu/nu); details: for Tumour weight: 21 days; for net tumour size (% of initial tumour volume): after 21 days
[13] = DMS-53 xenograft i.v. study: body and organ weights, haematology, histology; assay type: in vivo, nude mice (BALBc nu/nu); details: for HCT / HGB / PLT / RBC / WBC / Body weight (% of initial weight) / Brain weight / Heart weight / Kidney weight / Liver weight / Spleen weight / weight loss (% of initial body weight): i.v.; for HCT / HGB / PLT / RBC / WBC: average; for weight loss (% of initial body weight): after 25 days

O=c1[nH]cc(F)c(=O)[nH]1 [5-fluorouracil]
IC50 [1]: 41.2 ± 1.1 µM
IC90 [1]: > 40 µM
IC50 [2]: 24.3 ± 6.3 µM
IC90 [2]: > 5 µM
IC50 [3]: 59.2 ± 24.2 µM
IC90 [3]: > 80 µM
IC50 [4]: 62.3 ± 6.5 µM
IC90 [4]: > 20 µM

CC(=O)N(O)CCCCCNC(=O)CCC(=O)N(O)CCCCCNC(=O)CCC(=O)N(O)CCCCCN [DFO, desferrioxamine]
IC50 ([5]; Homo sapiens): 13.4 ± 3.7 µM
cellular 59Fe uptake (% of the control) [6]: 84%
IC50 [1]: 14.7 ± 3.1 µM
IC90 [1]: > 80 µM
IC50 [2]: 38.7 ± 6.2 µM
IC90 [2]: > 80 µM
cellular 59Fe mobilised (59Fe released as percentage of total 59Fe) [7]: 16%
IC50 [3]: 7 ± 5.4 µM
IC90 [3]: > 80 µM
IC50 [4]: 9.5 ± 1.4 µM
IC90 [4]: > 80 µM

CN(C(=S)NN=C(c1ccccn1)c1ccccn1)C1CCCCC1 [Dp4cycH4mT.HCl, di-2-pyridylketone 4-cyclohexyl-4-methyl-3-thiosemicarbazone]
MYOCARDIUM Fibrosis [8]: −
MYOCARDIUM HP (histopathological changes) [8]: N
SPLEEN HPC (score for the presence of haematopoietic cells in the splenic red pulp) [8]: N
iron deposits in the kidney [8]: iron deposits were observed
average tumour size (% of the original tumour size) ([9]; after 6 weeks, 5 mg/kg i.v. 5 days/week): 112%
final tumour weight ([9]; after 43 days, 5 mg/kg i.v.): 40 ± 12 mg

CCN(C)C(=S)NN=C(c1ccccn1)c1ccccn1 [Dp4e4mT.HCl, di-2-pyridylketone 4-ethyl-4-methyl-3-thiosemicarbazone]
Tumour weight ([10]; 1.5 mg/kg): 0.48 ± 0.6 g
Tumour weight ([10]; 4 mg/kg): 0.11 ± 0.09 g
Tumour weight ([10]; 6 mg/kg): 0.04 ± 0.03 g
myocardial lesions (Gomori-Trichrome stain) ([11]; Dp44mT 0.75 mg/kg, Dp4e4mT.HCl 3 weeks at 2.5, 5, 7.5 and 10 mg/kg oral): did not induce myocardial lesions
histology of the liver, spleen, kidney, brain or tumour (H & E) vs control ([11]; Dp44mT 2 weeks at 0.75 mg/kg, Dp4e4mT.HCl 3 weeks at 2.5, 5, 7.5 and 10 mg/kg oral): no significant differences
Total Iron-Binding Capacity (TIBC) ([11]; oral gavage 21 days, 5 mg/kg): 53.1 ± 1.2 µmol/L
Alkaline Phosphatase (ALP) ([11]; oral gavage 21 days, 10 mg/kg): 89.5±4.5 U/L
Body weight (% initial) ([11]; oral, 10 mg/kg): 94 % initial
Tumour weight ([12]; 2.5 mg/kg): 0.63 g
net tumour size (% of initial tumour volume) ([12]; 2.5 mg/kg): 645%
net tumour size (% of initial tumour volume) ([12]; 5 mg/kg): 733%
Tumour weight ([12]; 10 mg/kg): 0.46 g
histology of the liver, spleen, kidney, brain or tumour (H & E) vs control ([13]; 2 weeks i.v., Dp44mT 0.75 mg/kg, Dp4e4mT.HCl 4 and 6 mg/kg): no significant differences
myocardial lesions (Gomori-Trichrome stain) ([13]; 2 weeks i.v., Dp44mT 0.75 mg/kg, Dp4e4mT.HCl 4 or 6 mg/kg): did not induce myocardial lesions
change in red blood cell count, haemoglobin or white blood cell count ([13]; after 2 weeks, Dp44mT 0.75 mg/kg, Dp4e4mT.HCl 1.5, 4 or 6 mg/kg i.v.): no significant change
HCT ([13]; 1.5 mg): 0.4
HGB ([13]; 1.5 mg): 150.60 g/L
PLT ([13]; 1.5 mg): 766.4 10 × 9 cells/L
RBC ([13]; 1.5 mg): 8.76 10 × 12 cells/L
WBC ([13]; 1.5 mg): 3.34 10 × 9 cells/L
Body weight (% of initial weight) ([13]; 1.5 mg/kg): 95.14 ± 0.97 % initial weight
Brain weight ([13]; 1.5 mg/kg): 0.26 ± 0.13 g
Heart weight ([13]; 1.5 mg/kg): 0.1 ± 0.004 g
Kidney weight ([13]; 1.5 mg/kg): 0.26 ± 0.01 g
Liver weight ([13]; 1.5 mg/kg): 1.01 ± 0.02 g
Spleen weight ([13]; 1.5 mg/kg): 0.11 ± 0.01 g
HCT ([13]; 4 mg): 0.47
HGB ([13]; 4 mg): 153.75 g/L
PLT ([13]; 4 mg): 1224.5 10 × 9 cells/L
RBC ([13]; 4 mg): 10.74 10 × 12 cells/L
WBC ([13]; 4 mg): 2.94 10 × 9 cells/L
Body weight (% of initial weight) ([13]; 4 mg/kg): 99.41 ± 1.75 % initial weight
Brain weight ([13]; 4 mg/kg): 0.36 ± 0.01 g
Heart weight ([13]; 4 mg/kg): 0.1 ± 0.01 g
Kidney weight ([13]; 4 mg/kg): 0.26 ± 0.01 g
Liver weight ([13]; 4 mg/kg): 1.03 ± 0.02 g
Spleen weight ([13]; 4 mg/kg): 0.08 ± 0.003 g
weight loss (% of initial body weight) ([13]; 4 mg/kg): 0.6%
HCT ([13]; 6 mg): 0.41
HGB ([13]; 6 mg): 132.33 g/L
PLT ([13]; 6 mg): 1238 10 × 9 cells/L
RBC ([13]; 6 mg): 9.33 10 × 12 cells/L
WBC ([13]; 6 mg): 4.63 10 × 9 cells/L
Body weight (% of initial weight) ([13]; 6 mg/kg): 93.38 ± 3.96 % initial weight
Brain weight ([13]; 6 mg/kg): 0.36 ± 0.03 g
Heart weight ([13]; 6 mg/kg): 0.11 ± 0.01 g
Kidney weight ([13]; 6 mg/kg): 0.27 ± 0.01 g
Liver weight ([13]; 6 mg/kg): 1.1 ± 0.08 g
Spleen weight ([13]; 6 mg/kg): 0.089 ± 0.01 g
weight loss (% of initial body weight) ([13]; 6 mg/kg): 7%

O=C(NN=Cc1c(O)ccc2ccccc12)c1ccncc1 [compound 311, 2-hydroxy-1-naphthylaldehyde isonicotinoyl hydrazone, reference compound]
IC50 [5]: 0.72 ± 0.32 µM
cellular 59Fe uptake (% of the control) [6]: 5%
